Reference: patent US7803757B2, “Peptides based on the sequence of human lactoferrin and their use” (PharmaSurgics in Sweden AB, priority 1998, dated 2010)
Converted amounts (≈) assume the structure as drawn. Peptide text beside a SMILES is read from it. * marks the point of attachment. Acm = CC(=O)NC*

How the values were obtained:
C. albicans [1] = experiment: microbe, parasite or virus in culture; type: cell-based
Procedure: (§1) In the examples, the minimal microbicidal concentrations (MMC) and minimal inhibitory concentrations (MIC) were determined as follows, unless otherwise specified in the examples. Bacterial or fungal strains were cultured in BHI medium over night at 37° C. A volume of the culture was transferred to a new tube with BHI and incubated for two more hours. Thereafter the cells were spun down and the pellet was suspended in BHI medium diluted 1/100 (1% BHI). The concentration of bacterial or fungal cells was spectrophotometrically determined at 650 nm. The microbial concentrations were also determined by viable counts. Peptides serially diluted in 1% BHI by twofold or tenfold steps were added in triplicate to the wells of a microtiterplate (200 μl per well). The bacterial or fungal cell solutions were added in 10 μl volumes to give a final concentration of approximately 1-5×10^5 cells per ml in the well. The microplate was incubated at 37° C. in a humid chamber for two hours. Thereafter 5 μl was taken from each well and added as a drop onto a blood agar plate and incubated over night at 37° C. The microplate was incubated for another 20 hours at 37° C. and thereafter analysed spectrophotometrically at 650 nm in a microplate reader (Emax, Molecular Devices, USA). The concentration of peptide causing a 99% reduction of the inoculum after 2 hours of incubation was defined as the MMC99%. The MIC value was defined as the concentration giving no increase in the absorbance value above the background level after 20 hours of incubation.
Also in this example one of the peptides according to the invention—this time the peptide with SEQ. ID. NO. 4, was compared to a conventional fungicide, amphotericin. The antifungal activity against C. albicans was studied. Twofold serial dilutions with a starting concentration of 20 μg/ml were used. BHI diluted 1/100 was used as growth medium.

[2] = system: LPS-induced IL-6 response in a monocytic cell line (THP-1); experiment: inhibition of LPS-induced IL-6 response in THP-1 cells (Example 5); type: cell-based; details: agent added 30 minutes after LPS
Procedure: In this example an in vitro test was performed to study the anti-inflammatory activity of the peptides according to the invention. More precisely, the inhibitory effect of the peptides according to the invention on the LPS-induced IL-6 response in a monocytic cell line (THP-1) was studied and compared to the effect of human lactoferrin by use of the method described by I. Mattsby-Baltzer et al., Pediatr. Res. 40:257-262, 1996. The IL-6 response in the THP-1 cells was induced by addition of LPS. hLF, peptide 3 and peptide 4, respectively, were added 30 minutes after LPS.

C. glabrata = experiment: fungicidal activity MMC99%, C. glabrata (Example 27); type: cell-based; details: BHI diluted 1/100 (Table 23)
Procedure: as §1
In this example the fungicidal activity of three of the peptides according to the invention was studied, and tested against three different fungi. The fungi were incubated in BHI medium diluted 1/100. The concentration of each peptide needed to kill 99% of the fungi (MMC99%) was determined.

Candida albicans = experiment: fungicidal activity against Candida albicans, comparison with EP-A-0 629 347 peptides (Example 7); type: cell-based; details: C. albicans, I (tenfold steps), 5 · 10^3 yeast cells per ml
Procedure: In this example an in vitro test was performed to compare the bactericidal and fungicidal activity of the peptides according to the invention with peptides described in EP-A-0 629 347. The peptide according to the invention used was peptide 4, and the peptides according to EP-A-0 629 347 called Morinaga 10, Morinaga 11, Morinaga 12, and Morinaga 13.
The peptides were incubated with E. coli O14 and Candida albicans. Two concentrations of C. albicans yeast cells were tested, 5·10^6 and 5·10^3 per ml. Different concentrations of the peptides were tested.
After the incubation, samples were taken for bacterial plating. Serial dilutions of tenfold steps were used in the experiments marked with I in table 5 and of twofold steps in the experiments marked with II.

C. albicans [3] = experiment: concentration for killing of 99% of C. albicans at different pH (Example 13, FIG. 2); type: cell-based; details: FIG. 2, different pH
From the text: In this example the concentrations needed of three peptides according to the invention for killing of 99% of C. albicans at different pH was compared to a reference peptide. The peptides according to the invention were peptide 2 (linear), peptide 3 (cyclic), peptide 4 (linear), peptide 5 (cyclic) and peptide 7 (lactam bridged), all capped. The reference peptides used were an uncapped cyclic form and an uncapped linear form of a Morinaga peptide, Morinaga 24 and 25. The results are illustrated in FIG. 2.

C. albicans [4] = experiment: microbicidal activity MMC99%, C. albicans (Example 28); type: cell-based; details: C. albicans (Table 24)
Procedure, shortened: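 Peptides serially diluted in 1% BHI were incubated with E. coli O6K5 or C. albicans (~1-5×10^5 cells/ml) for 2 h at 37 °C, then spotted on blood agar overnight. MMC99% was the peptide concentration causing 99% reduction of the inoculum.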

[5] = system: Candida albicans ATCC 64549; experiment: fungicidal and growth inhibitory activity, Candida albicans ATCC 64549 (Example 8); type: cell-based
Procedure: Candida albicans ATCC 64549 (1·10^5/ml) was incubated in the presence of the peptides during 2 hours at 37° C. in diluted growth medium (BHI, twofold serial dilutions starting with 50 μg/ml). The fungicidal activity was measured by culturing 5 μl from each incubation well on Saboroud agar plates.
The inhibition of growth was measured spectrophotometrically after 20 hours of incubation.

E. coli O6K5 = experiment: urinary tract infection in mice, bacteria (CFU) in kidney (Example 6); type: in vivo; details: 500 μg per mouse orally 30 minutes after instillation, 24 hours
Procedure: E. coli O6K5 was instilled into the urinary bladder of mice. 30 minutes after instillation the different agents specified in table 5 were administered orally in an amount of 500 μg per mouse and 24 hours after instillation the number of bacteria (CFU) present in bladder and in kidney was determined.
The control group consisted of 10 animals in experiment I and of 23 animals in experiment II. The animals in the control groups were given tap water instead of peptide or hLF.

C. neoformans = experiment: fungicidal activity MMC99%, C. neoformans (Example 27); type: cell-based; details: BHI diluted 1/100 (Table 23)
Procedure: as §1, with “The bacterial or fungal cell solutions were added in 10 μl volumes to give a final concentration of approximately 1-5×10^5 cells per ml in the well. The microplate was incubated at 37° C. in a humid chamber for two hours. Thereafter 5 μl was taken from each well and added as a drop onto a blood agar plate and incubated over night at 37° C.” left out, “The concentration of peptide causing a 99% reduction of the inoculum after 2 hours of incubation was defined as the MMC99%.” left out
In this example the fungicidal activity of three of the peptides according to the invention was studied, and tested against three different fungi. […] The concentration of each peptide needed to kill 99% of the fungi (MMC99%) was determined.

multiresistant S. aureus = experiment: bactericidal activity, multiresistant S. aureus (Example 18); type: cell-based; details: multiresistant S. aureus 5.0×10^5 per ml
Procedure: In this example the bactericidal activity of two of the peptides according to the invention was studied in a test with a multiresistant S. aureus. A bacterial solution with a concentration of 5.0×10^5 S. aureus bacterial per ml was used. The concentration of each peptide needed to kill 99% of the bacteria (MMC99%) was determined after 2 hours and after 24 hours of incubation at 37° C.

Q: Which MIC (C. albicans [1]) does the source give for CC[C@H](C)[C@H](NC(=O)[C@H](CSCNC(C)=O)NC(=O)[C@H](CO)NC(=O)[C@@H](NC(=O)[C@@H]1CCCN1C(=O)[C@@H]1CCCN1C(=O)CNC(=O)[C@H](CCCNC(=N)N)NC(=O)[C@@H](NC(=O)[C@H](CCCCN)NC(=O)[C@H](CCCNC(=N)N)NC(=O)[C@H](CCSC)NC(=O)[C@H](CC(N)=O)NC(=O)[C@H](CCCNC(=N)N)NC(=O)[C@H](CCC(N)=O)NC(=O)[C@H](Cc1c[nH]c2ccccc12)NC(=O)[C@H](CCC(N)=O)NC(=O)[C@H](Cc1ccccc1)NC(=O)[C@H](CSCNC(C)=O)NC(=O)[C@H](CCCCN)NC(=O)[C@@H](NC(C)=O)[C@@H](C)O)C(C)C)C(C)C)C(=O)N[C@@H](CCCCN)C(=O)N[C@@H](CCCNC(=N)N)C(N)=O [Peptide 4] (Ac-TKC(Acm)FQWQRNMRKVRGPPVSC(Acm)IKR-NH2) here?
A: 5.0 µg/mL (≈ 1.67 µM)

Q: What about the MMC99% (C. albicans [1]; C. albicans, BHI diluted 1/100, twofold dilutions from 20 μg/ml) of the same compound?
A: 5.0 µg/mL

Q: And the “% inhibition of LPS response” value ([2]; IL-6 response in THP-1 cells)?
A: 39%

Q: And the “inhibitory activity on the LPS-induced IL-6 response (in words)” value ([2]; THP-1 cells)?
A: significant inhibition

Q: And the MMC99% (C. glabrata)?
A: >50

Q: And the “Concentration of agent for 100% killing” value (Candida albicans)?
A: 10 µg/mL

Q: What about the “concentration needed for killing of 99% of C. albicans, compared with the capped cyclic peptides (in words)” value (C. albicans [3]) of the same compound?
A: better effects than the capped cyclic peptides

Q: What about the MMC99% (C. albicans [4]) of the same compound?
A: 5

Q: And the “Concentration of agent for 100% killing” value ([5]; C. albicans ATCC 64549 1·10^5/ml, 2 hours 37° C., diluted BHI)?
A: 6.2 µg/mL

Q: And the “Concentration of agent for inhibition of growth” value ([5]; C. albicans ATCC 64549, spectrophotometrically after 20 hours)?
A: 6.2 µg/mL

Q: What about the “Statistical comparison of treatment group with control group of the number of bacteria, CFU, present in kidney (p, Mann-Whitney)” value (E. coli O6K5; Exp I, mouse strain CH/HeN) of the same compound?
A: p = 0.0137

Q: And the “Statistical comparison of treatment group with control group of the number of bacteria, CFU, present in kidney (p, Mann-Whitney)” value (E. coli O6K5; Exp II, mouse strain C3H/Tif)?
A: p = 0.0102

Q: What about the MMC99% (C. neoformans) of the same compound?
A: ≦3.1

Q: And the MMC99% (multiresistant S. aureus; 2 hours at 37° C.)?
A: 5.0 µg/mL

Q: And the MMC99% (multiresistant S. aureus; 24 hours at 37° C.)?
A: ≦0.32 μg/ml
